{"source": "patent US12006330B2", "about": "“Substituted macrocyclic compounds and related methods of treatment” (Alkermes, Inc., priority 2020, dated 2024)", "format_in_all_cases": "in vitro ADME", "key": {"[1]": {"system": "MDR1", "assay": "MDCK-MDR1 permeability assay", "conditions": "dog, MDCK-MDR1, MDCK-MDR1 cells; for efflux ratio at 2 h, 3 μM: Papp B→A divided by Papp A→B, read-out: Efflux ratio (ER); for Papp A→B at 2 h, 3 μM: test compound 3 μM, 2 hours at 37 degrees C, apical to basolateral", "description": "The bidirectional permeability (Apical to Basal and Basal to Apical directions) of test compounds in MDCK-MIDR1 cells were evaluated using MDCK-MIDR1 cells seeded in Solvo PreadyPort™ MDCK 96-well plate. Once the plate was received from ReadyCell (Barcelona, Spain), it was treated as per PreadyPort™ user's manual.\nFor the Apical to Basolateral (A→B) permeability, 80 μL of test compound (3 μM) co-dosed with LY (Lucifer Yellow) (100 μM) in HBSS (Hank's Balanced Salt Solution) assay buffer was added to the donor side (A) while 250 μL of HBSS buffer was added to the receiver side (B). For the Basolateral to Apical (B→A) permeability, 255 μL of test compound (3 μM) in HBSS assay buffer was added to the donor side (B) while 75 μL of HBSS buffer containing LY (100 μM) was added to the receiver side (A).\nThe plate was placed in an incubator set at 37 degrees C. After 10 minutes of pre-warming, 5 μL aliquot was taken from donor compartment and set aside as the dosing solution. The MDCK-MDR1 incubation plate was placed back into the incubator for 2 hours of incubation at 37 degrees C. After 2 hours of incubation, 25 μL and 5 μL aliquots were removed from the receiver and donor sides, respectively. To the 5 μL aliquots taken from the donor sides (before and after a 2-hour incubation) were diluted with 20 μL of the HBSS buffer. All samples were mixed with 150 μL with acetonitrile containing internal standard (IS) and 200 μL water, and analyzed by LC-MS/MS.\nThe apparent permeability (Papp) was calculated using the following formula: Papp=dQ/dt×1/A×C0 where: • dQ/dt: amount of translocated material over incubation time (nmol/s) • A: area of insert (0.14 cm^2 for PreadyPort™ MDR1-96) • C0: initial concentration of product applied in apical (A→B) or basal (B→A) compartment (nmol/mL)\nThe efflux ratio (ER) was measured by dividing the Papp (basolateral to apical direction) by Papp (apical to basolateral direction). It is a general measure of the involvement of active processes. An ER>2 is considered positive for active transport.\nPercent recovery was measured using the following equation:\n[formula] where: • VR: Volume of the receiver compartment (mL) • VD: Volume of the donor compartment (mL) • CN: Concentration of dosing solution (μM) collected after 10 minutes of incubation • CR^final: Receiver concentration at the end of the incubation (μM) • CD^final: Donor concentration at the end of the incubation (μM)\nThe data reported in Table 3 were obtained according to the MDCK-MDR1 permeability assay described above."}, "[2]": {"assay": "Hepatocytes stability assay (human hepatocytes)", "conditions": "both sexes, human, cryopreserved hepatocytes, cryopreserved human hepatocytes (pool of 50 mixed gender); 1 μM test compound; 1×10^6 cell/mL; 37 degrees C; read-out: CLint (μL/min/million cells)", "description": "(§1) In vitro metabolic stability was assessed using cryopreserved hepatocytes from male Sprague Dawley rats and a pool of 50 mixed gender humans (BioIVT, Baltimore, MD). The incubation mixtures were prepared by mixing 250 μL of pre-warmed KHB (Krebs-Henseleit buffer) containing 2×10^6 cell/mL of hepatocytes with 250 μL of pre-warmed KHB buffer containing 2 μM of test compounds in a 48-well plate, giving a final concentration of 1 μM test compound (0.1% DMSO) and 1×10^6 cell/mL of hepatocytes. The reaction mixture was incubated at 37 degrees C. A 50 μL aliquot of incubation mixture was taken at time points (0, 15, 30, 60, 120 and 240 minutes) and transferred into a 96-well plate containing 300 μL ice-cold acetonitrile (containing 30 ng/mL of labetalol and 10 ng/mL of Naltrexone-d3 as internal standards) and immediately placed in ice to terminate the reaction. Samples were centrifuged, and supernatants were transferred into 96-well plates for liquid chromatography with tandem mass spectrometry (LC-MS/MS) analysis to monitor the depletion of the test compound.\n(§2) Data was calculated as percent remaining by assuming zero-minute time point peak area ratio (analyte/IS) as 100% and dividing remaining time point peak area ratios by zero-minute time point peak area ratio. Data were fitted to a first-order decay model to determine half-life. From a plot of log (ln) peak area against time, the slope of the line was determined. Subsequently, half-life (T1/2) and intrinsic clearance (CLint) were calculated using the equations below: Elimination rate constant (k)=(−slope) Half-life (T1/2) min=0.693/k Intrinsic Clearance (CLint) (mL/min/million cells)=(V×0.693)/T1/2 V=incubation volume mL/number of cells The in vitro T1/2 was converted to in vitro intrinsic clearance (CLint,hep) in units of mL/min/kg using the formula shown below:\n(§3) [formula] The in vitro intrinsic clearance (CLint,hep) was scaled to in vivo hepatic clearance (CL,hep) using the following equation which was adapted from a well-stirred model.\n(§4) [formula] where Q is the liver blood flow and fu is the fraction unbound (assumed to be unity in this case). All parameters used in the calculation are shown below (Table 4).\n(§5) The extraction ratio (ER) was calculated by dividing the hepatic clearance of a compound to the liver blood flow. The data reported in Table 5 were obtained according to the human hepatocytes stability assay described above."}, "[3]": {"system": "human hepatocytes", "assay": "Hepatocytes stability assay (human hepatocytes)", "conditions": "human hepatocytes; scaled hepatic clearance divided by liver blood flow (well-stirred model, fu assumed unity)", "description": "as §1, §2, §3, §4, §5"}}}
{"smiles": "Cc1cccc2c1C1CCC(CC1)OC[C@H]1[C@@H](NS(=O)(=O)C(C)C)CCCN1C(=O)CO2", "note": "(stereo in doubt) [Compound 9]", "values": [{"measurement": "efflux ratio at 2 h, 3 μM", "setting": "[1]", "value": 50}, {"measurement": "Papp A→B at 2 h, 3 μM", "setting": "[1]", "value": 0.87, "unit": "×10⁻⁶ cm/s"}, {"measurement": "hepatocyte CLint at 1 μM", "setting": "[2]", "value": 32, "unit": "µL/min/1e6 cells"}, {"measurement": "Extraction Ratio (ER)", "setting": "[3]", "value": 0.83}]}
{"smiles": "C=CS(=O)(=O)N[C@H]1CCCN2C(=O)COc3ccccc3C3CCC(CC3)OC[C@@H]12", "note": "(stereo in doubt) [Compound 5]", "values": [{"measurement": "efflux ratio at 2 h, 3 μM", "setting": "[1]", "value": 29}, {"measurement": "Papp A→B at 2 h, 3 μM", "setting": "[1]", "value": 1.3, "unit": "×10⁻⁶ cm/s"}, {"measurement": "hepatocyte CLint at 1 μM", "setting": "[2]", "value": 22, "unit": "µL/min/1e6 cells"}, {"measurement": "Extraction Ratio (ER)", "setting": "[3]", "value": 0.77}]}
{"smiles": "Cc1ccc2c(c1)OCCN1CCC[C@H](NS(C)(=O)=O)C1CO[C@H]1CC[C@@H]2CC1", "note": "(stereo in doubt) [Compound 50]", "values": [{"measurement": "efflux ratio at 2 h, 3 μM", "setting": "[1]", "value": 0.76}, {"measurement": "Papp A→B at 2 h, 3 μM", "setting": "[1]", "value": 9.6, "unit": "×10⁻⁶ cm/s"}, {"measurement": "hepatocyte CLint at 1 μM", "setting": "[2]", "value": 61, "unit": "µL/min/1e6 cells"}, {"measurement": "Extraction Ratio (ER)", "setting": "[3]", "value": 0.90}]}
{"smiles": "CCS(=O)(=O)N[C@H]1CCCN2CCOc3ccccc3[C@H]3CC[C@H](CC3)OCC12", "note": "(stereo in doubt) [Compound 53]", "values": [{"measurement": "efflux ratio at 2 h, 3 μM", "setting": "[1]", "value": 1.8}, {"measurement": "Papp A→B at 2 h, 3 μM", "setting": "[1]", "value": 5.6, "unit": "×10⁻⁶ cm/s"}, {"measurement": "hepatocyte CLint at 1 μM", "setting": "[2]", "value": 58, "unit": "µL/min/1e6 cells"}, {"measurement": "Extraction Ratio (ER)", "setting": "[3]", "value": 0.90}]}
{"smiles": "Cc1c(Cl)ccc2c1[C@H]1CC[C@H](CC1)OCC1[C@@H](NS(=O)(=O)C3CC3)CCCN1C(=O)CO2", "note": "(stereo in doubt) [Compound 75]", "values": [{"measurement": "efflux ratio at 2 h, 3 μM", "setting": "[1]", "value": 65}, {"measurement": "Papp A→B at 2 h, 3 μM", "setting": "[1]", "value": 0.3, "unit": "×10⁻⁶ cm/s"}, {"measurement": "hepatocyte CLint at 1 μM", "setting": "[2]", "value": 11, "unit": "µL/min/1e6 cells"}, {"measurement": "Extraction Ratio (ER)", "setting": "[3]", "value": 0.61}]}
{"smiles": "O=S(=O)(N[C@H]1CCCN2CCOc3ncccc3[C@H]3CC[C@H](CC3)OCC12)C1CC1", "note": "(stereo in doubt) [Compound 63]", "values": [{"measurement": "efflux ratio at 2 h, 3 μM", "setting": "[1]", "value": 1.4}, {"measurement": "Papp A→B at 2 h, 3 μM", "setting": "[1]", "value": 7.5, "unit": "×10⁻⁶ cm/s"}, {"measurement": "hepatocyte CLint at 1 μM", "setting": "[2]", "value": 44, "unit": "µL/min/1e6 cells"}, {"measurement": "Extraction Ratio (ER)", "setting": "[3]", "value": 0.87}]}
{"smiles": "O=C1COc2ccc(Cl)cc2C2CCC(CC2)OC[C@H]2[C@@H](NS(=O)(=O)C3CC3)CCCN12", "note": "(stereo in doubt) [Compound 16]", "values": [{"measurement": "efflux ratio at 2 h, 3 μM", "setting": "[1]", "value": "> 100"}, {"measurement": "Papp A→B at 2 h, 3 μM", "setting": "[1]", "value": 0.2, "unit": "×10⁻⁶ cm/s"}, {"measurement": "hepatocyte CLint at 1 μM", "setting": "[2]", "value": 6.1, "unit": "µL/min/1e6 cells"}, {"measurement": "Extraction Ratio (ER)", "setting": "[3]", "value": 0.47}]}
{"smiles": "Cc1ccc2c(c1)[C@H]1CC[C@H](CC1)OCC1[C@@H](NS(C)(=O)=O)CCCN1CCO2", "note": "(stereo in doubt) [Compound 54]", "values": [{"measurement": "efflux ratio at 2 h, 3 μM", "setting": "[1]", "value": 2}, {"measurement": "Papp A→B at 2 h, 3 μM", "setting": "[1]", "value": 5.2, "unit": "×10⁻⁶ cm/s"}, {"measurement": "hepatocyte CLint at 1 μM", "setting": "[2]", "value": 38, "unit": "µL/min/1e6 cells"}, {"measurement": "Extraction Ratio (ER)", "setting": "[3]", "value": 0.85}]}
{"smiles": "O=C1COc2ccccc2C2CCC(CC2)OC[C@H]2[C@@H](NS(=O)(=O)C(F)F)CCCN12", "note": "(stereo in doubt) [Compound 7]", "values": [{"measurement": "efflux ratio at 2 h, 3 μM", "setting": "[1]", "value": 22}, {"measurement": "Papp A→B at 2 h, 3 μM", "setting": "[1]", "value": 1.4, "unit": "×10⁻⁶ cm/s"}, {"measurement": "hepatocyte CLint at 1 μM", "setting": "[2]", "value": 19, "unit": "µL/min/1e6 cells"}, {"measurement": "Extraction Ratio (ER)", "setting": "[3]", "value": 0.74}]}
{"smiles": "O=C1COc2nnccc2[C@H]2CC[C@H](CC2)OCC2[C@@H](NS(=O)(=O)C3CC3)CCCN12", "note": "(stereo in doubt) [Compound 67]", "values": [{"measurement": "efflux ratio at 2 h, 3 μM", "setting": "[1]", "value": 63}, {"measurement": "Papp A→B at 2 h, 3 μM", "setting": "[1]", "value": "< 0.036", "unit": "×10⁻⁶ cm/s"}, {"measurement": "hepatocyte CLint at 1 μM", "setting": "[2]", "value": 2.5, "unit": "µL/min/1e6 cells"}, {"measurement": "Extraction Ratio (ER)", "setting": "[3]", "value": 0.27}]}
{"smiles": "O=C1COc2ccccc2[C@H]2CC[C@H](CC2)OCC2[C@@H](NS(=O)(=O)C3CCC3)CCCN12", "note": "(stereo in doubt) [Compound 42]", "values": [{"measurement": "efflux ratio at 2 h, 3 μM", "setting": "[1]", "value": 7.4}, {"measurement": "Papp A→B at 2 h, 3 μM", "setting": "[1]", "value": 0.92, "unit": "×10⁻⁶ cm/s"}, {"measurement": "hepatocyte CLint at 1 μM", "setting": "[2]", "value": 36, "unit": "µL/min/1e6 cells"}, {"measurement": "Extraction Ratio (ER)", "setting": "[3]", "value": 0.84}]}
{"smiles": "CC1(S(=O)(=O)N[C@H]2CCCN3C(=O)COc4ccccc4C4CCC(CC4)OC[C@@H]23)CC1", "note": "(stereo in doubt) [Compound 8]", "values": [{"measurement": "efflux ratio at 2 h, 3 μM", "setting": "[1]", "value": 3.6}, {"measurement": "Papp A→B at 2 h, 3 μM", "setting": "[1]", "value": 1.8, "unit": "×10⁻⁶ cm/s"}, {"measurement": "hepatocyte CLint at 1 μM", "setting": "[2]", "value": 31, "unit": "µL/min/1e6 cells"}, {"measurement": "Extraction Ratio (ER)", "setting": "[3]", "value": 0.82}]}
{"smiles": "Cc1c(Cl)ccc2c1[C@H]1CC[C@H](CC1)OCC1[C@@H](NS(=O)(=O)C(C)C)CCCN1C(=O)CO2", "note": "(stereo in doubt) [Compound 28]", "values": [{"measurement": "efflux ratio at 2 h, 3 μM", "setting": "[1]", "value": 92}, {"measurement": "Papp A→B at 2 h, 3 μM", "setting": "[1]", "value": 0.43, "unit": "×10⁻⁶ cm/s"}, {"measurement": "hepatocyte CLint at 1 μM", "setting": "[2]", "value": 3.8, "unit": "µL/min/1e6 cells"}, {"measurement": "Extraction Ratio (ER)", "setting": "[3]", "value": 0.36}]}
{"smiles": "Cc1ccc2c(c1C)[C@H]1CC[C@H](CC1)OCC1[C@@H](NS(=O)(=O)C3CC3)CCCN1C(=O)CO2", "note": "(stereo in doubt) [Compound 77]", "values": [{"measurement": "efflux ratio at 2 h, 3 μM", "setting": "[1]", "value": 27}, {"measurement": "Papp A→B at 2 h, 3 μM", "setting": "[1]", "value": 0.79, "unit": "×10⁻⁶ cm/s"}, {"measurement": "hepatocyte CLint at 1 μM", "setting": "[2]", "value": 12, "unit": "µL/min/1e6 cells"}, {"measurement": "Extraction Ratio (ER)", "setting": "[3]", "value": 0.63}]}
